Laboratory results published in patent publication US20210220241A1, “Body Sculpting” (Sculpt B.V., priority 2014, published 2021).
Like-named read-outs stand apart in the source and are kept apart here. Each block holds one compound with its values, some of them ahead of it.

What was measured:
[1] = In vitro ester hydrolysis assay, control in PBS without tissue (spontaneous hydrolysis); type: physicochemical; details: 30 degrees
Experimental: (§1) Octopamine released was measured using a 50 ml beaker thermostated at 30 degrees. 30 ml PBS (stirred) was pumped at 1 ml/min (Gilson minipulse 3) through a UV detector (SPD-10Avp Shimadzu UV/VIS) set at 280 nm and 2.56 AUFS. The outlet was recirculated back to the beaker. UV signal was recorder on a flatbed recorder (Kipp), set at 1 mm/min and 1 mV gain.
(§2) Octopamine and octopamine decanoate solutions (1 mM) were made in ultrapure water adding 1 microliter/ml of 1.8% hydrochloride acid. Octopamine decanoate was sonicated for 30 min at 30 degrees.
(§3) Upon stabilization of the UV detector on PBS, 1 ml of tissue suspension was added to the PBS. Upon stabilization of the UV signal, 5 ml of 1 mM of octopamine decanoate was added. Control experiments were performed without addition of tissue suspension in order to monitor spontaneous hydrolysis of decanoate ester in PBS.

[2] = In vitro ester hydrolysis assay in PBS/human fat suspension; type: in vitro ADME; details: PBS/human fat tissue at concentrations three times higher than rat tissue, in 110 min
Experimental: Abdominal fat tissue was harvested from male wistar rats (400 g, Harlan Zeist) and stored at −80° C. until use. Human fat tissue was obtained from esthetic surgery and stored at −80° C. until use. Tissue was thuraxed (80 mg/ml for rat tissue and 240 mg/ml for human tissue) for 1 min in Phosphate buffered saline (PBS (Irvine Scientific).
as §1, §2, §3

[3] = tested on: human fat suspension; test: In vitro assay of glycerol production in human fat (Example 3); type: cell-based; details: 2 hours at 37 degrees Celsius
Experimental: Human fat tissue was pottered using a teflon potter in 10 ml PBS with 6 mM Glucose (2.4 gram fat tissue per 10 ml). The suspension was transferred to a 50 ml beaker and was gently stirred at 37 degrees Celsius to maintain the homogeneous nature. 0.3 ml suspension was transferred to 2 ml reaction vials, spiked with octopamine (end concentration 1 microM) and octopamine decanoate (end concentration 10 microM and PBS/glucose were added until 2 ml end volume. Vials were incubated at 37 degrees Celsius for 2 hours.
Samples were spun off at 4000 rpm for 2 min and 10 microliter samples were taken after removal of floating fat with a tissue.
(§4) Samples were analyzed using an enzymatic kit (Sigma Aldrich) and fluorescence intensity was measured using direct flow injection (Vici valve in combination with Shimadzu 10 ADvp HPLC pump at 0.15 ml/min, thermo 15*2.1 C18 column prior to valve and using ultrapure water as mobile phase) of 20 microliter into a HPLC fluorescence detector (Shimadzu RF 10Ax1). Calibration was performed by preparation of calibration samples 2-1000 microM.

[4] = tested on: Male wistar rats; test: In vivo effect of hydrogel treatment on waist, weight and plasma glycerol of rats (Example 5); parameters: species or system rat
Experimental: Male wistar rats (approx. 500 g) were weight daily and waistline was measured. Animals were shaven once weekly at least 12 hours before next treatment to ensure wound healing.
Animals were first treated for 1 month with carbomer hydrogel not containing prodrugs (twice daily abdominal application 3 by 3 cm) , after which animals were treated with 0.5 ml carbomer hydrogel containing 5 mg/ml octopamine decanoate (application concentration 0.277 mg/cm^2). Tail vena blood draws (100 microliter plasma, 5 microliter heparine 500 IE per 100 microliter blood) were taken on the day −8, 21, 36 (start of compound treatment), 51 and 58. Blood was spun off (10 min 14 KRPM) and plasma was stored at −80.
as §4, with “Blood samples were” for “Samples were”, “analyzed for glycerol” for “analyzed”, “with shimadzu” for “with Shimadzu”, “ADvp hplc” for “ADvp HPLC”, “RF 10Axl).” for “RF 10Ax1).”

[5] = Stability / hydrolysis in PBS at 37 degrees (Example 6); type: physicochemical; details: for Hydrolysis in PBS compared with plasma or fat tissue: PBS at 37 degrees
Experimental: Samples were analyzed using HPLC UV.

[6] = Skin and fat penetration assay, cubes of human fat with skin (Example 8); type: in vitro ADME
Experimental: Cubes of human fat (5×5×5 cm) with skin attached from obese female subjects that underwent esthetic surgery was dissected at 4° C. Cubes were transferred to containers so the skin would overlay the rim of the container. 0.25 ml of hydrogels comprising 2.75 mg/ml free octopamine, 5 mg/ml octopamine decanoate or 3.98 mg/ml octopamine pentanoate were applied once and left to penetrate for 20 hrs. Cubes were subsequently frozen at −80° C.
Upon defrosting, skin was carefully removed taking care not to contaminate the underlying fat. The fat was dissected to yield a column of 1×1 cm of fat that was directly under the site of application. The column was sliced to yield 0.5 cm thick slices covering 0-2cm fat depth under the site of application. Tissue was sonicated in 5 ml PBS (5 mM glucose), samples were spun down (13000 rpm for 30 min at 4° C.). Clear supernatant was removed with an injection needle and syringe and frozen until analysis. Analysis of octopamine was performed as described in Example 7.

[7] = tested on: human volunteers; test: Application on human volunteers: waistline and skinfold (Example 10); type: in vivo; details: for Decrease of waistline: same molar concentration
Experimental: For abdominal/hip experiments 2 male volunteers […] (BMI 25.5 and 28 resp.) monitored belly circumference, and skinfold at belly and hip on a daily basis (8 am mornings). Blood pressure and body weight was monitored daily. […] Hydrogel was applied daily or twice daily as indicated using a 5 ml syringe to measure volume. For abdominal experiments, the indicated volume of hydrogel was applied on the belly around the belly button in a radius of 10 cm. The same volume was applied for hip areas. For leg experiments, 2.5 ml was applied on each leg. Skinfold was assessed by measuring thickness of skin at hips and belly 4 cm from belly button using a skinfold measuring device ([…]-120). […] Experiments are the average of two experiments (n=2). […] Experiments are an average of 2 or 3 runs (n=2-3).

[8] = Plasma levels of octopamine in human volunteers (Example 10); type: in vivo
Experimental: After thorough washing of hands, blood was sampled using […]. Blood (40 microliter) was sampled using a capillary that protruded the cap of the vial and spun down into 300 microliter vials containing 10 microliter of heparin 20 IE/ml. Plasma was pipetted off and transferred to 300 microliter vials and stored at -20° C. until analysis. Octopamine was analyzed as described in Example 7. […] FIG. 17b), and of octopamine pentanoate (3.98 mg/ml, 2.5 ml, once daily); FIG. 17c). Experiments are an average of one or two experiments (n=1-2).

[9] = female, human, 15 min, 10 microM
[10] = tested on: human volunteers; test: Blood pressure, heart rate and side effects in human volunteers (Example 10); details: humans; for Side effects: topical hydrogel treatment regimes
[11] = tested on: human subject; test: Removal of cellulite on a human subject (Example 11); type: in vivo; details: hydrogel 3.98 mg/ml, 5 ml once daily, area with moderate cellulite, after three days
Experimental: A hydrogel comprising 3.98 mg/ml octopamine pentanoate (5 ml) was applied once daily on a human subject in an area with moderate cellulite.

[12] = Skin penetration chamber, human skin (Example 7); type: in vitro ADME; details: 0.25 ml hydrogel 2.75 mg/ml, human skin 6.25 cm^2, 2 hours
Experimental: The chamber was thermostated at 37° C. Samples were drawn from the PBS pottered tissue with a 1 ml syringe and analyzed using LC-mass spectrometry. Given the full conversion, this assay evaluates the total penetration of octopamine prodrug through skin based on equal amounts of octopamine, and compares this to the penetration of an equal amount of octopamine itself. Samples were analyzed using HPLC masspectrometry. A Shimadzu HPLC (LC20AD pump and […] injector) was used in conjunction with a sciex API 4000 Masspectrometer. The HPLC column was a Phenomenex, Synergi Max (BOL-P-RP2.5-036), 3.0×100mm, […], thermostated at 35° C. The mobile phase consisted of Eluent A: 0.1% formic acid (“FA”) in ultrapure water (“UP”) and Eluent B: 70% acetonitrile (“ACN”) +0.1% FA at a total flow of 0.3 ml/min. […] UP/ACN/FA =50/50/0.1. […] Gradients were maintained at 100% B for 0.5 minute. […] Samples were centrifugated for 5 mins at 13000 rpm and 14 μL 0.1% FA in UP was added to 6 μL supernatant and vortexed for 10 sec. The autoinjector was programmed to add 20 μl 0.5 mg/ml […] reagent (online) and inject 35 μl. The […] reagent was prepared by dissolving 5 mg […] in 4.5 ml UP, 5 ml 0.25 M NaHCO3, 0.5 ml methanol (“MeOH”) and 20 microliter 2-mercapto-ethanol.

[13] = humans n=2, hydrogel on belly and hips, 2.5 ml once daily or 5 ml twice daily, after 16 days
[14] = hydrogel 5 mg/ml, 5 ml twice daily on belly and hips
[15] = 0.25 ml hydrogel applied once, 20 hrs
[16] = humans, 2.5 ml or 5 ml hydrogel

Compound: CCCCCCCCCC(=O)Oc1ccc(C(O)CN)cc1 (centres unmarked) [octopamine decanoate, 4-(2-amino-1-hydroxyethyl)phenyl decanoate]
Spontaneous hydrolysis into octopamine, rate [1]: 10 % per 110 min | Conversion by hydrolysis [2]: over 40% | Glycerol production (levels) ([3]; end concentration 10 microM, P=0.047): reached significance | Animal weights ([4]; 0.5 ml hydrogel 5 mg/ml twice daily abdominal): remained inclining according to their growth curve | Reduction of waistline ([4]; 0.5 ml hydrogel 5 mg/ml twice daily abdominal, after 3 weeks of treatment): about 10% | Plasma glycerol levels ([4]; after 15 days of treatment, P=0.101): increased | Plasma glycerol levels ([4]; after 22 days of treatment, P=0.024): reaching significance | Hydrolysis in PBS compared with plasma or fat tissue [5]: much lower rate | Penetration through skin and fat tissue [6]: penetrate through both skin and fat tissue | Decrease of waistline [7, 13]: about 4% | Reduction of skinfold (belly and hip) ([7]; hydrogel 5 mg/ml, 5 ml twice daily, in 20 days): 10-20% | Plasma levels of free octopamine upon administration of hydrogel ([8]; human, in vivo): did not result in unacceptable plasma levels | Base level of hydrolysis in fat suspension [9]: 40-45% | Blood pressure (systole and diastole) [10, 14]: remained normal | Heart rate [10, 14]: remained normal | Side effects [10]: No side effects were reported

Compound: CCCCC(=O)Oc1ccc(C(O)CN)cc1.Cl (centres unmarked) [octopamine pentanoate, 4-(2-amino-1-hydroxyethyl)phenyl valeroate hydrochloride]
Hydrolysis in PBS compared with plasma or fat tissue [5]: much lower rate | Concentrations of free octopamine in fat layers (0-2 cm depth) compared with hydrogel comprising octopamine [6, 15]: higher concentrations | Penetration through skin and fat tissue [6, 15]: penetrate through both skin and fat tissue | Plasma levels of free octopamine upon administration of hydrogel [8, 16]: did not result in unacceptable plasma levels | Cellulite [11]: noticeably decreased | Side effects [10]: no side effects were reported

Stability in PBS [5]: stable | Penetration of octopamine through skin [12]: minor penetration | Plasma levels of free octopamine upon administration of hydrogel [8, 16]: acceptable systemic concentrations
Compound: p-Octopamine [reference compound]
Glycerol production (levels) ([3]; end concentration 1 microM, P=0.10): increased | Penetration through skin and fat tissue [6, 15]: penetrate through both skin and fat tissue | Decrease of waistline [7, 13]: without effect | Decrease of waistline ([7]; single individual, hydrogel on belly and hips, after 21 days): without effect
